{
  "source": "patent US11789016B2",
  "about": "“Methods, systems and kits for in-pen assays” (Berkeley Lights, Inc., priority 2017, dated 2023)",
  "origin": "cited, not measured here",
  "biological_target": "IgG",
  "details": "for Kd: read-out: Affinity for IgG",
  "note": "Read-outs that look alike come from different tables or passages of the source.",
  "data": [
    {"substance": "5′-rGp-rGp-rAp-rGp-rGp-fUp-rGp-fCp-fUp-fCp-fCp-rGp-rAp-rAp-rAp-rGp-rGp-rAp-rAp-fCp-fUp-fCp-fCp-3′ [CPD 5]", "values": [
      {"measurement": "Kd", "setting": "Fc of hIgG", "value": 75, "unit": "nM"}
    ]},
    {"substance": "CPD 1: Protein A-AF594, Pierce Recombinant Protein A (ThermoFisher Cat. # 77674)", "values": [
      {"measurement": "Affinity for IgG", "setting": "order of magnitude in words", "value": "nanomolar"}
    ]},
    {"substance": "DCAWHLGELVWCT [CPD 4, Asp Cys Ala Trp His Leu Gly Glu Leu Val Trp Cys Thr]", "values": [
      {"measurement": "Kd", "setting": "Fc", "value": 100, "unit": "nM"}
    ]}
  ]
}
